Source: PubChem BioAssay (NCI)
Several values for one entry are separate records, joined by “and”; a condition that tells them apart may be missing. Equal values may be shown once.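 Abbreviation: GI50, concentration required for 50% inhibition of growth. TGI denotes the concentration required for complete inhibition of growth.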

What was measured:
Experiment in all cases: inhibition of tumour cell growth, NCI panel, 384-well format
HOP-92 NSCLC = system: HOP-92 NSCLC
U251 glioblastoma = system: U251 glioblastoma
NCI-H460 NSCLC = system: NCI-H460 NSCLC
EKVX NSCLC = system: EKVX NSCLC
786-0 renal = system: 786-0 renal
OVCAR-5 ovarian = system: OVCAR-5 ovarian
SF-295 CNS = system: SF-295 CNS
MALME-3M melanoma = system: MALME-3M melanoma
NCI-H522 lung = system: NCI-H522 lung
NCI-H23 lung = system: NCI-H23 lung
UACC-257 melanoma = system: UACC-257 melanoma
MOLT-4 leukemia = system: MOLT-4 leukemia
BT-549 breast = system: BT-549 breast
HCC-2998 colon = system: HCC-2998 colon
SK-MEL-2 melanoma = system: SK-MEL-2 melanoma
TK-10 renal = system: TK-10 renal
UO-31 renal = system: UO-31 renal
RXF 393 renal = system: RXF 393 renal
COLO 205 colon = system: COLO 205 colon
LOX IMVI melanoma = system: LOX IMVI melanoma
IGROV1 ovarian = system: IGROV1 ovarian
MDA-MB-435 melanoma = system: MDA-MB-435 melanoma
OVCAR-8 ovarian = system: OVCAR-8 ovarian
SNB-75 CNS = system: SNB-75 CNS
SR leukemia = system: SR leukemia
NCI/ADR-RES ovarian = system: NCI/ADR-RES ovarian
SK-OV-3 ovarian = system: SK-OV-3 ovarian
MCF7 breast = system: MCF7 breast
CAKI-1 renal = system: CAKI-1 renal
SK-MEL-5 melanoma = system: SK-MEL-5 melanoma
HCT-116 colon = system: HCT-116 colon
SN12C renal = system: SN12C renal
OVCAR-3 ovarian = system: OVCAR-3 ovarian
K-562 leukemia = system: K-562 leukemia
SNB-19 CNS = system: SNB-19 CNS
HS 578T breast = system: HS 578T breast
M14 melanoma = system: M14 melanoma
SW-620 colon = system: SW-620 colon
A549 NSCLC = system: A549 NSCLC
NCI-H322M lung = system: NCI-H322M lung
MDA-MB-231 breast = system: MDA-MB-231 breast
OVCAR-4 ovarian = system: OVCAR-4 ovarian
RPMI-8226 leukemia = system: RPMI-8226 leukemia
SK-MEL-28 melanoma = system: SK-MEL-28 melanoma
HOP-62 NSCLC = system: HOP-62 NSCLC
SF-268 CNS = system: SF-268 CNS
KM12 colon = system: KM12 colon
NCI-H226 lung = system: NCI-H226 lung
HCT-15 colon = system: HCT-15 colon
ACHN renal = system: ACHN renal
UACC-62 melanoma = system: UACC-62 melanoma
HL-60(TB) leukemia = system: HL-60(TB) leukemia
DU-145 prostate = system: DU-145 prostate
T-47D breast = system: T-47D breast
A498 renal = system: A498 renal
HT29 colon = system: HT29 colon
PC-3 prostate = system: PC-3 prostate
MDA-MB-468 breast = system: MDA-MB-468 breast
SF-539 CNS = system: SF-539 CNS

COCCNCCc1cccc(Nc2ncc3c(n2)-c2ccccc2C(c2ccccc2F)C3)c1 (stereo not drawn)
GI50 (HOP-92 NSCLC): 1550 nM and 1610 nM
TGI (HOP-92 NSCLC): 2900 nM and 2970 nM
GI50 (U251 glioblastoma): 1670 nM and 1980 nM
TGI (U251 glioblastoma): 3070 nM and 3440 nM
GI50 (NCI-H460 NSCLC): 657 nM and 1300 nM
TGI (NCI-H460 NSCLC): 1860 nM and 2650 nM
GI50 (EKVX NSCLC): 1550 nM
TGI (EKVX NSCLC): 2910 nM
GI50 ([…]-0 renal): 1250 nM and 1500 nM
TGI (786-0 renal): 2520 nM and 2850 nM
GI50 (OVCAR-5 ovarian): 1790 nM and 1800 nM
TGI (OVCAR-5 ovarian): 3200 nM and 3230 nM
GI50 (SF-295 CNS): 1740 nM and 1820 nM
TGI (SF-295 CNS): 3140 nM and 3230 nM
GI50 (MALME-3M melanoma): 1900 nM and 2030 nM
TGI (MALME-3M melanoma): 3310 nM and 3470 nM
GI50 (NCI-H522 lung): 1670 nM and 1320 nM
TGI (NCI-H522 lung): 3050 nM and 2610 nM
GI50 (NCI-H23 lung): 1640 nM and 1740 nM
TGI (NCI-H23 lung): 3020 nM and 3130 nM
GI50 (UACC-257 melanoma): 1540 nM and 1670 nM
TGI (UACC-257 melanoma): 2900 nM and 3060 nM
GI50 (MOLT-4 leukemia): 670 nM and 543 nM
TGI (MOLT-4 leukemia): 1950 nM and 1790 nM
GI50 (BT-549 breast): 1340 nM and 1690 nM
TGI (BT-549 breast): 2630 nM and 3080 nM
GI50 (HCC-2998 colon): 1190 nM and 1540 nM
TGI (HCC-2998 colon): 2440 nM and 2900 nM
GI50 (SK-MEL-2 melanoma): 1360 nM and 1410 nM
TGI (SK-MEL-2 melanoma): 2650 nM and 2730 nM
GI50 (TK-10 renal): 1680 nM and 1620 nM
TGI (TK-10 renal): 3060 nM and 2990 nM
GI50 (UO-31 renal): 1780 nM and 1740 nM
TGI (UO-31 renal): 3180 nM and 3140 nM
GI50 (RXF 393 renal): 612 nM and 1260 nM
TGI (RXF 393 renal): 1840 nM and 2520 nM
GI50 (COLO 205 colon): 1760 nM and 1740 nM
TGI (COLO 205 colon): 3170 nM and 3150 nM
GI50 (LOX IMVI melanoma): 1360 nM and 1490 nM
TGI (LOX IMVI melanoma): 2650 nM and 2830 nM
GI50 (IGROV1 ovarian): 1160 nM and 1190 nM
TGI (IGROV1 ovarian): 2390 nM and 2430 nM
GI50 (MDA-MB-435 melanoma): 1880 nM and 1910 nM
TGI (MDA-MB-435 melanoma): 3300 nM and 3340 nM
GI50 (OVCAR-8 ovarian): 1800 nM and 1680 nM
TGI (OVCAR-8 ovarian): 3220 nM and 3080 nM
GI50 (SNB-75 CNS): 1430 nM and 1540 nM
TGI (SNB-75 CNS): 2750 nM and 2880 nM
GI50 (SR leukemia): 255 nM and 168 nM
TGI (SR leukemia): 421 nM and 358 nM
GI50 (NCI/ADR-RES ovarian): 1800 nM and 1890 nM
TGI (NCI/ADR-RES ovarian): 3210 nM and 3380 nM
GI50 (SK-OV-3 ovarian): 1350 nM and 1420 nM
TGI (SK-OV-3 ovarian): 2650 nM and 2760 nM
GI50 (MCF7 breast): 1280 nM and 1450 nM
TGI (MCF7 breast): 2590 nM and 2820 nM
GI50 (CAKI-1 renal): 1310 nM and 1000 nM
TGI (CAKI-1 renal): 2610 nM and 2350 nM
GI50 (SK-MEL-5 melanoma): 1890 nM and 1860 nM
TGI (SK-MEL-5 melanoma): 3310 nM and 3280 nM
GI50 (HCT-116 colon): 1490 nM and 1740 nM
TGI (HCT-116 colon): 2860 nM and 3170 nM
GI50 (SN12C renal): 1310 nM and 906 nM
TGI (SN12C renal): 2600 nM and 2340 nM
GI50 (OVCAR-3 ovarian): 1330 nM and 1370 nM
TGI (OVCAR-3 ovarian): 2630 nM and 2680 nM
GI50 (K-562 leukemia): 186 nM and 75.8 nM
TGI (K-562 leukemia): 402 nM and 214 nM
GI50 (SNB-19 CNS): 1920 nM and 1930 nM
TGI (SNB-19 CNS): 3350 nM and 3370 nM
GI50 (HS 578T breast): 1300 nM and 1590 nM
TGI (HS 578T breast): 2570 nM and 2940 nM
GI50 (M14 melanoma): 1850 nM and 2140 nM
TGI (M14 melanoma): 3260 nM and 3610 nM
GI50 (SW-620 colon): 1830 nM and 2290 nM
TGI (SW-620 colon): 3240 nM and 3770 nM
GI50 (A549 NSCLC): 1780 nM and 1660 nM
TGI (A549 NSCLC): 3210 nM and 3070 nM
GI50 (NCI-H322M lung): 1720 nM and 1700 nM
TGI (NCI-H322M lung): 3110 nM and 3090 nM
GI50 (MDA-MB-231 breast): 1630 nM and 1430 nM
TGI (MDA-MB-231 breast): 3000 nM and 2750 nM
GI50 (OVCAR-4 ovarian): 1330 nM and 1340 nM
TGI (OVCAR-4 ovarian): 2630 nM and 2640 nM
GI50 (RPMI-8226 leukemia): 683 nM and 701 nM
TGI (RPMI-8226 leukemia): 1860 nM and 1940 nM
GI50 (SK-MEL-28 melanoma): 1760 nM and 1830 nM
TGI (SK-MEL-28 melanoma): 3150 nM and 3240 nM
GI50 (HOP-62 NSCLC): 1780 nM
TGI (HOP-62 NSCLC): 3180 nM and 3190 nM
GI50 (SF-268 CNS): 1600 nM and 1650 nM
TGI (SF-268 CNS): 2960 nM and 3030 nM
GI50 (KM12 colon): 1560 nM and 1740 nM
TGI (KM12 colon): 2920 nM and 3150 nM
GI50 (NCI-H226 lung): 1220 nM and 1500 nM
TGI (NCI-H226 lung): 2470 nM and 2840 nM
GI50 (HCT-15 colon): 1200 nM and 1300 nM
TGI (HCT-15 colon): 2480 nM and 2620 nM
GI50 (ACHN renal): 1540 nM and 1300 nM
TGI (ACHN renal): 2890 nM and 2600 nM
GI50 (UACC-62 melanoma): 1770 nM and 1650 nM
TGI (UACC-62 melanoma): 3180 nM and 3040 nM
GI50 (HL-60(TB) leukemia): 563 nM and 1950 nM
TGI (HL-60(TB) leukemia): 1050 nM and 3390 nM
GI50 (DU-145 prostate): 1680 nM and 1760 nM
TGI (DU-145 prostate): 3070 nM and 3170 nM
GI50 (T-47D breast): 1610 nM and 1710 nM
TGI (T-47D breast): 2970 nM and 3100 nM
GI50 (A498 renal): 1290 nM and 1430 nM
TGI (A498 renal): 2570 nM and 2760 nM
GI50 (HT29 colon): 1520 nM and 1580 nM
TGI (HT29 colon): 2890 nM and 2980 nM
GI50 (PC-3 prostate): 1590 nM and 1400 nM
TGI (PC-3 prostate): 2960 nM and 2720 nM
GI50 (MDA-MB-468 breast): 2040 nM and 1950 nM
TGI (MDA-MB-468 breast): 3470 nM and 3370 nM
GI50 (SF-539 CNS): 1040 nM and 1550 nM
TGI (SF-539 CNS): 2320 nM and 2910 nM
